Results: ChEMBL document CHEMBL4507319 (2021)

Key:
SNU-398 = assay: Snu398 cell line Proliferation assay; format: functional, Homo sapiens; conditions: time 3 day
[1] = target: MAPK/MAK/MRK overlapping kinase (Homo sapiens) (UniProt Q9UQ07); assay: MOK(h) Eurofins kinase panel; conditions: Compound concentration 1.0 uM
[2] = target: T1, G protein-coupled receptor kinase 3 (Homo sapiens) (UniProt P35626); assay: GRK3(h) Eurofins kinase panel; conditions: Compound concentration 1.0 uM
T1 sequence (whole entry): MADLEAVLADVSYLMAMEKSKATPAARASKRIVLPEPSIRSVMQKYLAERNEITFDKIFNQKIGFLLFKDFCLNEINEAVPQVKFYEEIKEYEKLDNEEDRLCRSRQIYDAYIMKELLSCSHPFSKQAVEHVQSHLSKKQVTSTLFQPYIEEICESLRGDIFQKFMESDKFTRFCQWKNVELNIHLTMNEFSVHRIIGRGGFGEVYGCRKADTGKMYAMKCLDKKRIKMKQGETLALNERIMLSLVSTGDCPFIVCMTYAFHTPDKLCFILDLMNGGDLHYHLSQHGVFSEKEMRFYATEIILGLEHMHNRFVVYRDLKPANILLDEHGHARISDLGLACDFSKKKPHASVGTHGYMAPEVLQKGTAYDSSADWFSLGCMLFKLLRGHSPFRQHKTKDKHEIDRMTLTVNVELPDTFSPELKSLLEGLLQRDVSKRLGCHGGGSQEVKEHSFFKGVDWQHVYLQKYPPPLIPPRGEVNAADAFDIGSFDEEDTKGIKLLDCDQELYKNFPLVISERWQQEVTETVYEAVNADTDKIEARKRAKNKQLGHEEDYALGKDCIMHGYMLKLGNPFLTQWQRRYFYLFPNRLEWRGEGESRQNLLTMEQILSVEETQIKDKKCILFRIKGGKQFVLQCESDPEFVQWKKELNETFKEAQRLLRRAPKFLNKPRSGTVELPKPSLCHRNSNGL

[3] = target: Ephrin type-A receptor 5 (Homo sapiens) (UniProt P54756); assay: EphA5(h) Eurofins kinase panel; conditions: Compound concentration 1.0 uM
[4] = target: Serine/threonine-protein kinase PLK2 (Homo sapiens) (UniProt Q9NYY3); assay: Snk(h) Eurofins kinase panel; conditions: Compound concentration 1.0 uM
[5] = target: T2, SNF-related serine/threonine-protein kinase (Homo sapiens) (UniProt Q9NRH2); assay: SNRK(h) Eurofins kinase panel; conditions: Compound concentration 1.0 uM
T2 sequence (whole entry): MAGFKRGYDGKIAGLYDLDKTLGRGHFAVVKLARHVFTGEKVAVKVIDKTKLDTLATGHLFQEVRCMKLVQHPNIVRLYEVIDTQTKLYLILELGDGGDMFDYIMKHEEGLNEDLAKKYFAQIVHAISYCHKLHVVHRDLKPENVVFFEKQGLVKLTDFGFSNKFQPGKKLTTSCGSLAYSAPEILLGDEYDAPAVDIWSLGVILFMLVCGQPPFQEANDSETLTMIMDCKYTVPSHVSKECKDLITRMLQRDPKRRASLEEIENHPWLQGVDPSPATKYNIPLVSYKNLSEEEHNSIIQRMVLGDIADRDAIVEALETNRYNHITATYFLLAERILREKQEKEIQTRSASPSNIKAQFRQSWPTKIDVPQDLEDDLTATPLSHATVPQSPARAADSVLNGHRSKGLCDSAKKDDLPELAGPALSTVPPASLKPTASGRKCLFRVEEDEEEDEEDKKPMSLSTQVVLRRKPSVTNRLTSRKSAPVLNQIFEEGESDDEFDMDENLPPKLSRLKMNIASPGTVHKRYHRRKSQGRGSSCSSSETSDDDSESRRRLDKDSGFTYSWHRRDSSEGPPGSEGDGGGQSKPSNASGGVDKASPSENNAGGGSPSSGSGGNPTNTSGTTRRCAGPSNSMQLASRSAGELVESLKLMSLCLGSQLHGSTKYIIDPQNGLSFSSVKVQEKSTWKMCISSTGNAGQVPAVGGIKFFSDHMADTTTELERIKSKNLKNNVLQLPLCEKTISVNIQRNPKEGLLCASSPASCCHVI

[6] = target: Vascular endothelial growth factor receptor 3 (Homo sapiens) (UniProt P35916); assay: Flt4(h) Eurofins kinase panel; conditions: Compound concentration 1.0 uM
[7] = target: T3, Inhibitor of nuclear factor kappa-B kinase subunit epsilon (Homo sapiens) (UniProt Q14164); assay: IKKepsilon(h) Eurofins kinase panel; conditions: Compound concentration 1.0 uM
T3 sequence (whole entry): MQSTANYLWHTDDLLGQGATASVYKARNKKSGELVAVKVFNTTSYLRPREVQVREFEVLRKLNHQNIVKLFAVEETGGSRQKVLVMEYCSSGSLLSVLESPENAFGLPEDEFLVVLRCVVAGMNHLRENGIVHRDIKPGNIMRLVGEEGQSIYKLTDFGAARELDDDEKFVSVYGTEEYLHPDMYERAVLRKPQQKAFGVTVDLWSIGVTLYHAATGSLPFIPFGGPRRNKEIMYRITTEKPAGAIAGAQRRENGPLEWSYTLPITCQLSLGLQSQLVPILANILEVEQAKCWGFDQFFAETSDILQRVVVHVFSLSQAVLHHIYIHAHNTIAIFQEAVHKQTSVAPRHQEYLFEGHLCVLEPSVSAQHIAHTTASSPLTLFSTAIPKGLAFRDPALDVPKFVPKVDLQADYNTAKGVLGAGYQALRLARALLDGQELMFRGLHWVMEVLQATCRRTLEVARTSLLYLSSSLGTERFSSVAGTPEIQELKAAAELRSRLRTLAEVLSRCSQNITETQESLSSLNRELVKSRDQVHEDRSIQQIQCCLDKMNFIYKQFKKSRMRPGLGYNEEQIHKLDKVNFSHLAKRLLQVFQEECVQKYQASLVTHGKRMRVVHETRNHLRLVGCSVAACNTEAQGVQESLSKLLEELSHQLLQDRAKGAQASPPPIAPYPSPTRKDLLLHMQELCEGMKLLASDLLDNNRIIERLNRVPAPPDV

[8] = target: Serine/threonine-protein kinase Chk2 (Homo sapiens) (UniProt O96017); assay: CHK2(h) Eurofins kinase panel; conditions: Compound concentration 1.0 uM
[9] = target: Phosphatidylinositol 4-phosphate 5-kinase type-1 alpha (Homo sapiens) (UniProt Q99755); assay: PIP5K1a(h) Eurofins kinase panel; conditions: Compound concentration 1.0 uM
[10] = target: Tyrosine-protein kinase ABL1 (Homo sapiens) (UniProt P00519); assay: Abl(h) Eurofins kinase panel; conditions: Compound concentration 1.0 uM

Sequence of Serine/threonine-protein kinase PLK2 (Homo sapiens) (Q9NYY3 whole entry, looked up): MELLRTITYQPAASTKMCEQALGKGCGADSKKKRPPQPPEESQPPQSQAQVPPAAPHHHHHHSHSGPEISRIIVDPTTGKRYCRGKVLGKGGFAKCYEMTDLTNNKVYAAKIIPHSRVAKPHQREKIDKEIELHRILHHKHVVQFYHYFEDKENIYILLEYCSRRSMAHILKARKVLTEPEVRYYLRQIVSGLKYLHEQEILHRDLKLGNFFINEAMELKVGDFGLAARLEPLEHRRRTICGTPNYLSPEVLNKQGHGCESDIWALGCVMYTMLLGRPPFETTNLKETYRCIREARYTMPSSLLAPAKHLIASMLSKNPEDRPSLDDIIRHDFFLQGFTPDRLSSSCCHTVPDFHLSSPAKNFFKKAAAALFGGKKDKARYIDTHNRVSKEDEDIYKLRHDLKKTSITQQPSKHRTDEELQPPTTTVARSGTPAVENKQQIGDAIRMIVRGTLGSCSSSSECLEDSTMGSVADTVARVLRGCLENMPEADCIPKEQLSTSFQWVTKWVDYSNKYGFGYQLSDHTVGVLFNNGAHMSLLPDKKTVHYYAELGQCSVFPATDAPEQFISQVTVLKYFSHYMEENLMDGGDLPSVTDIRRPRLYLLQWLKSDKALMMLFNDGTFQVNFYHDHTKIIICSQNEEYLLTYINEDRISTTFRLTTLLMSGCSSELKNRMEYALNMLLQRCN
Sequence of Serine/threonine-protein kinase Chk2 (Homo sapiens) (O96017 whole entry): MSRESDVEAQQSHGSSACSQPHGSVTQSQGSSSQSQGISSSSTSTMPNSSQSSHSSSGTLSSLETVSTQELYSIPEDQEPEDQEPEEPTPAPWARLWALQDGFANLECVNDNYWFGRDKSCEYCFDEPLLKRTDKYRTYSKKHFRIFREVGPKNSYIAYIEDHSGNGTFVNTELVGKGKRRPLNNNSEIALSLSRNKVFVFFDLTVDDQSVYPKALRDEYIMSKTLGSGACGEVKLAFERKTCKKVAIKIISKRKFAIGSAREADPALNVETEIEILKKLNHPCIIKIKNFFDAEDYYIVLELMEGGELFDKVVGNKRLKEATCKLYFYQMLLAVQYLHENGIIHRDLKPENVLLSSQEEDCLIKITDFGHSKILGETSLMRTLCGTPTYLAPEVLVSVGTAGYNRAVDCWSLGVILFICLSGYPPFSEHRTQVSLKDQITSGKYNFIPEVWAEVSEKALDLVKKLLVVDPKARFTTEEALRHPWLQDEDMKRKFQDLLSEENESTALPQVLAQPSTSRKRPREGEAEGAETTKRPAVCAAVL
Sequence of Vascular endothelial growth factor receptor 3 (Homo sapiens) (P35916 whole entry): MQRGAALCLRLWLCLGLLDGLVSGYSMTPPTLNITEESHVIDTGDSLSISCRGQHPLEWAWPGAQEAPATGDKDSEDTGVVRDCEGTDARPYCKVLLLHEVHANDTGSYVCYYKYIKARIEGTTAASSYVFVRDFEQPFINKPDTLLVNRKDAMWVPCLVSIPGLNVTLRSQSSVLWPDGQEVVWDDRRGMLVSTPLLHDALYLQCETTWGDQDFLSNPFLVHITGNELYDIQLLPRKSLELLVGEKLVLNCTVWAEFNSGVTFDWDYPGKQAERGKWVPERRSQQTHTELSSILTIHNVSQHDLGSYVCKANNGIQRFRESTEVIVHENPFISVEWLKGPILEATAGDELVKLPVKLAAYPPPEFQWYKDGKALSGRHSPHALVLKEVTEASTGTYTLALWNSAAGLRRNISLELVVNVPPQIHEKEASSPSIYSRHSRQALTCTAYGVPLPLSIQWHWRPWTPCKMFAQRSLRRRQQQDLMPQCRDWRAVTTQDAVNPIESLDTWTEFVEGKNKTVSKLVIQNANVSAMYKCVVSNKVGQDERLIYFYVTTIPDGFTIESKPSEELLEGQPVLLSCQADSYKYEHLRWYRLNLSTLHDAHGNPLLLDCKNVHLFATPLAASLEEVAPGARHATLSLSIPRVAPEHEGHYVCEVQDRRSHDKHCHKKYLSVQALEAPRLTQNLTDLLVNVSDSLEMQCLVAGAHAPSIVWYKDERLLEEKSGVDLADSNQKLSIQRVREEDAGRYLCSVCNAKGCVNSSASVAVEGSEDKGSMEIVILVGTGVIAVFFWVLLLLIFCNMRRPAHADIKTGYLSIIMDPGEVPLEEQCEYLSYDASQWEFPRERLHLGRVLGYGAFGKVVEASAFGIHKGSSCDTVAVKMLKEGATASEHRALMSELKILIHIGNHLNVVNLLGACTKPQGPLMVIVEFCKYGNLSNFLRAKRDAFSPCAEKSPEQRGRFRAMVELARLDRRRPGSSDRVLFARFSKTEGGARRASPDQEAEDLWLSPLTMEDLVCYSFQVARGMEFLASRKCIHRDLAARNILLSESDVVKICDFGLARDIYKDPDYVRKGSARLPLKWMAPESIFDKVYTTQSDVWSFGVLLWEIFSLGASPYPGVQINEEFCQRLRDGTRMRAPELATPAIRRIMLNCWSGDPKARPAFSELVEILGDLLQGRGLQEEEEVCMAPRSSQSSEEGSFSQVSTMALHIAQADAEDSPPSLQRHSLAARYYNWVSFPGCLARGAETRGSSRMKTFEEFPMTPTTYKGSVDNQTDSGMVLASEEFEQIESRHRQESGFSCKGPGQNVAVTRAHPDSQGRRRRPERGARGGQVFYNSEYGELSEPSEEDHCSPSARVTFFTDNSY
Sequence of MAPK/MAK/MRK overlapping kinase (Homo sapiens) (Q9UQ07 whole entry): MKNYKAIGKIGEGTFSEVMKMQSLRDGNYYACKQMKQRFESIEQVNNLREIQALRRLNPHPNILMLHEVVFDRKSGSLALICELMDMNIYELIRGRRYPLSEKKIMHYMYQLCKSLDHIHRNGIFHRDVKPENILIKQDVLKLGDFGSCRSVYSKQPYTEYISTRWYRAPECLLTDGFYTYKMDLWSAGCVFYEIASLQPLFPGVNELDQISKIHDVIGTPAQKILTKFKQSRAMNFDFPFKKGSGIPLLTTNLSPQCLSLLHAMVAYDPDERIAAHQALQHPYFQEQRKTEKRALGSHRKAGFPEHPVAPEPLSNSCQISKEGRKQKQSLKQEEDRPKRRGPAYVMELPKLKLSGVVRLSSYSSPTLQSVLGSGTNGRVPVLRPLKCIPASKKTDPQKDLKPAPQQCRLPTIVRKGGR
Sequence of Ephrin type-A receptor 5 (Homo sapiens) (P54756 whole entry): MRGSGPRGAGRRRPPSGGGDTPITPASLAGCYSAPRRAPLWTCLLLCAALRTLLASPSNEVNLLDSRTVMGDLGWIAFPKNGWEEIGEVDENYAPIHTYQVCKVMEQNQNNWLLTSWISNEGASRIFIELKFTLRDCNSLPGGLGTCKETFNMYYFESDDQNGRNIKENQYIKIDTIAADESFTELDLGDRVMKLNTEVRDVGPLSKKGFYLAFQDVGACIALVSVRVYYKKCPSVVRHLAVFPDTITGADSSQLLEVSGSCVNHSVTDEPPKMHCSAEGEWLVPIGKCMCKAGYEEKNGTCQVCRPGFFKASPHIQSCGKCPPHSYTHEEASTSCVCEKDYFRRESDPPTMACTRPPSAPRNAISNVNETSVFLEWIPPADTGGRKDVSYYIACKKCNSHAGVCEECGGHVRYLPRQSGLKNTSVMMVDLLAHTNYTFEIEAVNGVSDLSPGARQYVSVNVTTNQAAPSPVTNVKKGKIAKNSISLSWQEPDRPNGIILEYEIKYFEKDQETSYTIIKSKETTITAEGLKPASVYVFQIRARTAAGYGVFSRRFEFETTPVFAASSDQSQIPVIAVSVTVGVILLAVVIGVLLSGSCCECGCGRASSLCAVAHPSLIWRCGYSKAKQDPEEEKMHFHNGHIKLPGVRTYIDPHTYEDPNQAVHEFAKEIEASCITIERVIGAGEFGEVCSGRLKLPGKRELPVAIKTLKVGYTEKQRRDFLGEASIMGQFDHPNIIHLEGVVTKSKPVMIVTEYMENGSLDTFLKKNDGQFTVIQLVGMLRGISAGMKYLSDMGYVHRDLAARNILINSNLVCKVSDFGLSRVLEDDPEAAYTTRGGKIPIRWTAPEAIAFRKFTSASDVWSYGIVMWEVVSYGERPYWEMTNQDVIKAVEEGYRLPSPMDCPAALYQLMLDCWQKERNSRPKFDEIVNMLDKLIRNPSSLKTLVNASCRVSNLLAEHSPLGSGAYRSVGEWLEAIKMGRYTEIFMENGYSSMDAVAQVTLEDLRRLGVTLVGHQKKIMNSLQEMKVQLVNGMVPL
Sequence of Phosphatidylinositol 4-phosphate 5-kinase type-1 alpha (Homo sapiens) (Q99755 whole entry): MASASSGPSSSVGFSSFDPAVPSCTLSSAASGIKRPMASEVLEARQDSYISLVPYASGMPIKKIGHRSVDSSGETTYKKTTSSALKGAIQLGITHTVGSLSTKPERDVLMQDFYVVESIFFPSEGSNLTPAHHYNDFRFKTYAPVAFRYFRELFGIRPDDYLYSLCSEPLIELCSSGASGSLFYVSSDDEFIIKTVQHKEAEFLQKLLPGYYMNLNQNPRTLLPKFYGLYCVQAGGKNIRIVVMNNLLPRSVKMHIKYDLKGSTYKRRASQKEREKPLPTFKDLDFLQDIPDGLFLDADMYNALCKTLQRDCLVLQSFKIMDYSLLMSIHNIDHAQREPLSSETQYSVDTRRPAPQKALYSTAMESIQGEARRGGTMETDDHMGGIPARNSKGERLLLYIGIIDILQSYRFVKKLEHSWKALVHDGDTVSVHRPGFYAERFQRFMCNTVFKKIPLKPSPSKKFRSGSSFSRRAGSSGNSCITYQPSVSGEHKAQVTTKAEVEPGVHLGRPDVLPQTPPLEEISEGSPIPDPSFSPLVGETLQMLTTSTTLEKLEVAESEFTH

CCc1ccccc1C(=O)Nc1n[nH]c2c(C)c(F)c(C3C(C#N)=C(C)N(C)C(C)=C3C#N)cc12 [BAY-3827]
Cell Proliferation IC50 (SNU-398): 7.3 µM
% residual kinase activity [1]: 115%
% residual kinase activity [2]: 106%
% residual kinase activity [3]: 89%
% residual kinase activity [4]: 100%
% residual kinase activity [5]: 113%
% residual kinase activity [6]: 73%
% residual kinase activity [7]: 108%
% residual kinase activity [8]: 100%
% residual kinase activity [9]: 100%
% residual kinase activity [10]: 131%
